Measurements taken from patent US20080103045A1, “Preparation For Eradicating Algae And Microorganisms In Aqueous Environment” (LIFETECH S.R.O., priority 2005, published 2008).

Key:
Conditions in all cases: effective concentration of copper cations
Anabaena sp. = tested on: Anabaena sp.
Raphidocelis subcapitata = tested on: Raphidocelis subcapitata
[1] = tested on: Synechococcus leopoliensis
Scenedesmus quadricauda = tested on: Scenedesmus quadricauda
Chlorella kessleri = tested on: Chlorella kessleri
Mycrocystis incerta = tested on: Mycrocystis incerta

O=S(=O)([O-])[O-].[Cu+2] [copper sulfate]
EC50 (mg/l Cu(II)) (Anabaena sp.): 0.50 mg/l Cu(II) | EC50 (mg/l Cu(II)) (Raphidocelis subcapitata): 1.27 mg/l Cu(II) | EC50 (mg/l Cu(II)) [1]: 1.26 mg/l Cu(II) | EC50 (mg/l Cu(II)) (Scenedesmus quadricauda): 1.15 mg/l Cu(II) | EC50 (mg/l Cu(II)) (Chlorella kessleri): 1.14 mg/l Cu(II) | EC50 (mg/l Cu(II)) (Mycrocystis incerta): 1.26 mg/l Cu(II)
